Results from ChEMBL document CHEMBL1201862, “PubChem BioAssay data set” (2004).
Calls of active or inactive are those of the source.

Tests used:
[1] = viability of uninfected HEp-2 cells – cell-based, HTS, cytotoxicity control for RSV inhibitor project, dose response (AID 2410); format: functional; conditions: human respiratory syncytial virus
[2] = Luminescence Cell-Based Dose Confirmation HTS to Identify Activators of 5'UTR Stem-Loop Driven Alpha-Synuclein mRNA Translation in H4 Neuroglioblastoma Cells. [Related pubchem assays: 1829 (Project Summary), 1814 (Primary HTS)]; format: functional
[3] = system: H4; test: Luminescence Cell-Based Dose Response HTS to Identify Activators of 5'UTR Stem-Loop Driven Prion Protein mRNA Translation in H4 Neuroglioblastoma Cells. [Related pubchem assays: 1829 (Project Summary), 1814 (Primary HTS)]; format: functional; conditions: Homo sapiens
[4] = Luminescence Cell-Based Dose Response HTS to Identify Activators of Luciferase Translation or Activity in H4 […] Cells. [Related pubchem assays: 1829 (Project Summary), 1814 (Primary HTS)]; format: functional
[5] = target: Cytochrome P450 2C9 (Homo sapiens, UniProt P11712)
Cytochrome P450 2C9, sequence (P11712 whole entry): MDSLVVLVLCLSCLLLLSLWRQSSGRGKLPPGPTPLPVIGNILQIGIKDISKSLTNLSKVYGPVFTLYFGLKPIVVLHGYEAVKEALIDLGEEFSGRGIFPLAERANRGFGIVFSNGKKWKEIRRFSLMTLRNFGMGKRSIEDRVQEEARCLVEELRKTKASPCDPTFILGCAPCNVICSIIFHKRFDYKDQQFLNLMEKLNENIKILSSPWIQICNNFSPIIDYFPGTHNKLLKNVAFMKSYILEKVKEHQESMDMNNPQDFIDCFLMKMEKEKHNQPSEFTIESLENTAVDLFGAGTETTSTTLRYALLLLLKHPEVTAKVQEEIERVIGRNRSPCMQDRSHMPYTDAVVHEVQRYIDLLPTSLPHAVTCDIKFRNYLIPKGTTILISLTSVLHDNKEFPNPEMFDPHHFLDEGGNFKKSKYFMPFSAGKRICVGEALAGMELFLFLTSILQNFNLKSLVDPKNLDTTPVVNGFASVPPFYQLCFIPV

[6] = target: Cytochrome P450 2C19 (Homo sapiens, UniProt P33261); test: Cytochrome panel assay with activity outcomes. Panel member name: p450-cyp2c19 Compounds with AC50 equal or less than 10 uM are considered active; format: functional
Cytochrome P450 2C19, sequence (P33261 whole entry): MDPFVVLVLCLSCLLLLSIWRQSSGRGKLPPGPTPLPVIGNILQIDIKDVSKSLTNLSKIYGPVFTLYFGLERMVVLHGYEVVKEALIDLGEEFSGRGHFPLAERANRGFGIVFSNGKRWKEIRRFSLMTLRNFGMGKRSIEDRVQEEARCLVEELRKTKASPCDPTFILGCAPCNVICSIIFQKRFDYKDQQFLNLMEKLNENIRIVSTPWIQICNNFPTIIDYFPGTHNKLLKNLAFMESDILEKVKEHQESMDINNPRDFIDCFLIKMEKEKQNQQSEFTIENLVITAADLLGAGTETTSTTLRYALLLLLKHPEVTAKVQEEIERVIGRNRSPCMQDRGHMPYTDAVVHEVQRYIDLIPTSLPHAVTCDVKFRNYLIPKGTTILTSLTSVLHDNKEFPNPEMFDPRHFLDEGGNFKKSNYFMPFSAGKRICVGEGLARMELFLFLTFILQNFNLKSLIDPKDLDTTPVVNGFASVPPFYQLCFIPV

[7] = viability of HCT116 lacking mutant beta-catenin – cell-based, human colon tumor, dose response (AID 1045); format: functional;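 also: HCT116 colon tumor cells with beta catenin knocked out; cells exposed to compound for 60 hours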
[8] = viability of PTEN-deleted HCT116 cells – cell-based, HCT116 PTEN knockout, dose response (AID 1047); format: functional;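 also: HCT116 colon tumor cells with PTEN knocked out; cells exposed to compound for 60 hours before readout; potency for loss of cell viability measured by luminescence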
[9] = Trypanosoma cruzi growth suppression in host cells – NIH3T3 host cells, beta-gal luminescence, confirmation (AID 2044); format: functional, cell-based;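 also: intracellular parasites grown in NIH/3T3 mouse fibroblasts as host cells; luminescent beta-galactosidase reporter signal from transgenic T. cruzi replicating inside host cells; inhibitors lower the luminescence signal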
[10] = NIH3T3 cell viability loss – ATP luminescence, mouse fibroblasts, counter-screen, dose response (AID 2010); format: functional, cell-based;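 also: cells exposed to compound for about 90 hours before reading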
[11] = target: T1, Cytochrome P450 1A2 (Homo sapiens, UniProt P05177);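 also: PubChem cytochrome P450 panel assay, CYP1A2 panel member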
T1 sequence (P05177 whole entry): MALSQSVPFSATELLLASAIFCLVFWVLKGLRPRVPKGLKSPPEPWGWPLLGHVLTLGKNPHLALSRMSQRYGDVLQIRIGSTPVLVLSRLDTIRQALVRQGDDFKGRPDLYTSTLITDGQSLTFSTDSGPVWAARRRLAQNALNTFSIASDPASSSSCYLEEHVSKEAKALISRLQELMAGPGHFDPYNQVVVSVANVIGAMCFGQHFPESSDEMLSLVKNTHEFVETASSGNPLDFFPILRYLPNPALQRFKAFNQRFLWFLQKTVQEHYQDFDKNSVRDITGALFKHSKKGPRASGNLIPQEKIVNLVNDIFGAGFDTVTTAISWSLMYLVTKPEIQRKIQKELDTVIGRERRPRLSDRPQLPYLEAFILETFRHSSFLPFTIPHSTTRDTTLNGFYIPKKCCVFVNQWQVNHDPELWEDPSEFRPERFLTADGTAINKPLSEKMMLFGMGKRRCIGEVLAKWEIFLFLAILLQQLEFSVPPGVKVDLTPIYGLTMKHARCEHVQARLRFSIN

[12] = Luminescence Cell-Based Dose Response HTS to Identify Inhibitors of 5'UTR Stem-Loop Driven Prion Protein mRNA Translation in H4 Neuroglioblastoma Cells. [Related pubchem assays: 1827 (Project Summary), 1813 (Primary HTS)]; format: functional
[13] = alpha-synuclein stem-loop luciferase translation blockers – H4 neuroglioma cells, luminescence, confirmation (AID 1988); format: functional, cell-based
[14] = luciferase reporter signal suppression in cells – H4 neuroglioma cells, luminescence, dose response (AID 1990); format: functional, cell-based
[15] = target: T2, Rac GTPase-activating protein 1 (Homo sapiens, UniProt Q9H0H5); test: blockers of MgcRacGAP-driven Rac1 GTP hydrolysis – biochemical, ADP Hunter fluorescence, primary and confirmatory, confirmation (AID 624330); format: functional
T2 sequence (Q9H0H5 whole entry): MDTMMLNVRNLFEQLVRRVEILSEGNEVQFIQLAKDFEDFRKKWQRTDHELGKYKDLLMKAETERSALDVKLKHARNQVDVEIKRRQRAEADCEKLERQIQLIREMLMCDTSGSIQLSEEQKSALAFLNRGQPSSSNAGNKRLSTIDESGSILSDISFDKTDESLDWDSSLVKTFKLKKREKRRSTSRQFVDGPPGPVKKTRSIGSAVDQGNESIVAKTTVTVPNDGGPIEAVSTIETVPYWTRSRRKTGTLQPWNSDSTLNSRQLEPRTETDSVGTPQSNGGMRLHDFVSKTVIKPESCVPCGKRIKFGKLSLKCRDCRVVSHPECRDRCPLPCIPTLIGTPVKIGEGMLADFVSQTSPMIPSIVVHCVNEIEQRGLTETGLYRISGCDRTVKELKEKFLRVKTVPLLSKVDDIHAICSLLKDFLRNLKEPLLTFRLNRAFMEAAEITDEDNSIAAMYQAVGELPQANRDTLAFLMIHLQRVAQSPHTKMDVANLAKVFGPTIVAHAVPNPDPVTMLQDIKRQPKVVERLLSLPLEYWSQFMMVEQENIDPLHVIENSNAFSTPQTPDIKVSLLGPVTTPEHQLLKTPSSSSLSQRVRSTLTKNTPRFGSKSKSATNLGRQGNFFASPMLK

[16] = reduction of Shn3 3'UTR-driven luciferase in osteoblasts – cell-based, Clone20 osteoblasts, firefly luciferase, cherry-picked, dose response (AID 624132); format: functional;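 also: firefly luciferase luminescence from reporter carrying the Shn3 3'UTR in osteoblasts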

SMILES: CN(CC(=O)Nc1ccc(Cl)c(C(F)(F)F)c1)C(=O)Cc1c[nH]c2ccccc12
- CC50 [1]: 16.7 µM (active)

SMILES: O=C(OCCOc1ccccc1)c1[nH]nc2ccccc12
- EC50 [2]: 3.16 µM (active)
- EC50 [3]: 98.3 µM (inconclusive)
- EC50 [4]: 0.748 µM (active)

SMILES: O=C(OC(C(=O)Nc1ccc(Cl)cc1C(F)(F)F)c1ccccc1)c1c(Cl)cccc1Cl (configuration not stated)
- CC50 [1]: 22.1 µM (active)

SMILES: Cc1nc2nc(-c3ccc(Cl)cc3)nn2c(C)c1Cl
- AC50 [5]: 20 µM (inconclusive)
- AC50 ([6]; read-out: AC50): 39.8 µM (inconclusive)
- EC50 [3]: 5.95 µM (active)
- EC50 [4]: 0.454 µM (active)

SMILES: Cc1ccc(Nc2nc(N)nc(CN3CCN(Cc4ccc5c(c4)OCO5)CC3)n2)cc1Cl
- EC50 [7]: 15.9 µM (active)
- EC50 [8]: 18 µM (active)

SMILES: Cc1ccc(Nc2[nH]nc(C)c2[N+](=O)[O-])cc1
- EC50 [2]: 44.9 µM (active)
- EC50 [3]: 0.172 µM (active)
- EC50 [4]: 25.3 µM (active)

SMILES: Cc1nc2c(sc3nc4c(cc32)COC(C)(C)C4)c(=O)n1Cc1ccccc1
- EC50 [2]: 7.25 µM (active)
- EC50 [3]: 11.6 µM (active)
- EC50 [4]: 7.48 µM (active)

SMILES: CC(C)(C)NC(=O)C(c1c[nH]c2ccccc12)N(C(=O)Cn1nnc(-c2ccc(Cl)cc2)n1)c1ccccc1F (configuration not stated)
- EC50 [9]: 1.79 µM (active)
- CC50 [1]: 25.8 µM (active)
- EC50 [10]: > 60 µM (not active)

SMILES: Cn1cccc1C(=O)N1CCC2(CC1)CCN(c1ccccn1)CC2
- AC50 [11]: 15.8 µM (inconclusive)
- AC50 [5]: 31.6 µM (inconclusive)

SMILES: CCOC(=O)c1[nH]c2c(c1-c1ccccc1)C(=O)CC(c1ccc(OC)c(OC)c1)C2 (configuration not stated)
- EC50 [7]: 69.1 µM (active)
- EC50 [8]: 54 µM (active)

SMILES: CC1(C)Cc2c(c(-c3ccco3)nc3sc4c(NCCN5CCOCC5)ncnc4c23)CO1
- EC50 [7]: 16.2 µM (active)
- EC50 [8]: 8.46 µM (active)

SMILES: Cc1nc2cncnc2n(C2CC2)c1=O
- AC50 [5]: 7.94 µM (inconclusive)

SMILES: COCC(=O)Nc1ccc(-c2cn3cccnc3n2)cc1
- AC50 [5]: 6.31 µM (inconclusive)
- AC50 ([6]; read-out: AC50): 3.98 µM (inconclusive)

SMILES: COc1ccc(-c2cc(=O)oc3cc(OCC(=O)c4cccc([N+](=O)[O-])c4)ccc23)cc1
- EC50 [7]: 21.8 µM (active)
- EC50 [8]: 24.9 µM (active)

SMILES: CCCCn1c(SCC(=O)Nc2cc(NC(=O)c3ccco3)ccc2C)nc2ccccc2c1=O
- EC50 [7]: 19.7 µM (active)
- EC50 [8]: 14.4 µM (active)

SMILES: CC(=O)OC[C@@H]1O[C@H](CCO/N=C(\C)CCC(=O)OC[C@@H]2O[C@H](C#Cc3ccccc3)C=C[C@@H]2Oc2ccc(C)cc2)C=C[C@@H]1OC(C)=O
- AC50 [5]: 6.31 µM (inconclusive)

SMILES: O[C@@H]1[C@H](O)[C@H]2[C@@H](O)CCN2C[C@@H]1O
- AC50 [11]: 31.6 µM (inconclusive)
- AC50 [5]: 25.1 µM (inconclusive)
- AC50 ([6]; read-out: AC50): 39.8 µM (inconclusive)

SMILES: Cc1ncc([N+](=O)[O-])n1CCOC(=O)NC(NCc1ccccc1)C(Cl)(Cl)Cl (configuration not stated)
- AC50 [11]: 25.1 µM (inconclusive)
- AC50 [5]: 12.6 µM (inconclusive)
- AC50 ([6]; read-out: AC50): 14.1 µM (inconclusive)

SMILES: CCN1C(=O)[C@H]2[C@@H](c3ccc(-c4ccc(F)cc4)c(OC)c3)N[C@@](CC(C)C)(C(=O)OC)[C@H]2C1=O
- EC50 [12]: 26.4 µM (active)
- EC50 [13]: 13.9 µM (active)
- EC50 [14]: 17.2 µM (active)

SMILES: CCn1c2c(c3ccc(OC)cc31)CCCC2=O
- CC50 [1]: > 50 µM (active)

SMILES: CC(=O)c1cc2c(s1)-c1cc(F)ccc1OC2
- CC50 [1]: 33.3 µM (active)

SMILES: CCOc1ccccc1NC(=O)c1nnn(-c2ccc3c(c2)OCCO3)c1N
- CC50 [1]: 24.3 µM (active)

SMILES: COCCn1c(=O)c(-c2cn(C)c3ccccc23)nc2cncnc21
- AC50 [5]: 10 µM (inconclusive)
- AC50 ([6]; read-out: AC50): 25.1 µM (inconclusive)

SMILES: Cc1ccccc1Nc1nc(N)nc(-c2oc3ccccc3c2C)n1
- EC50 [9]: 3.43 µM (active)
- CC50 [1]: 35.4 µM (active)
- EC50 [10]: > 60 µM (not active)

SMILES: Cc1cccc(C(=N)NOC(=O)CCCN2C(=O)c3ccccc3C2=O)c1
- AC50 [5]: 3.98 µM (inconclusive)
- AC50 [6]: inconclusive

SMILES: Cc1cc(C)c(NC(=O)CSc2nc(COc3ccccc3)nc3ccccc23)c(C)c1
- EC50 [12]: 16.6 µM (active)
- EC50 [13]: > 120 µM (not active)
- EC50 [14]: > 120 µM (not active)

SMILES: C=CCc1c(C)nc2c(OC)cccc2c1Cl
- CC50 [1]: 48.5 µM (active)

SMILES: CCC(C)(C)n1nnnc1C(c1cc2cc(C)cc(C)c2nc1O)N1CCN(C(=O)c2ccco2)CC1 (configuration not stated)
- EC50 [7]: 30.2 µM (active)
- EC50 [8]: 28.4 µM (active)

SMILES: S=C(NCCN1CCOCC1)Nc1ccc(Nc2ccccc2)cc1
- IC50 [15]: 129 µM (active)

SMILES: OC(COCC1COc2ccccc2O1)CN1CCN(c2ccccc2F)CC1 (configuration not stated)
- AC50 [5]: 20 µM (inconclusive)

SMILES: CCC(=O)Nc1ccc(Nc2ccccc2)cc1
- IC50 [15]: 53.6 µM (active)

SMILES: Cc1ccccc1S(=O)(=O)N1[C@@H](c2cccc(Cl)c2)C(C(=O)O)=CC[C@H]1c1ccc(Cl)cc1
- CC50 [1]: 15.4 µM (active)

SMILES: O=C(c1cc(C2CC2)nc2ccc(Br)cc12)N1N=C(C(F)F)CC1(O)C(F)F (configuration not stated)
- EC50 [7]: 13.9 µM (active)
- EC50 [8]: 10.5 µM (active)

SMILES: c1cncc(-c2nc(NCc3cccs3)c3ccccc3n2)c1
- AC50 [5]: 1 µM (inconclusive)
- AC50 ([6]; read-out: AC50): 5.01 µM (inconclusive)

SMILES: COc1ccc([N+](=O)[O-])cc1NC(=O)C(C)N(C)Cc1cccc(OC)c1OC (configuration not stated)
- CC50 [1]: > 50 µM (active)

SMILES: Cc1ccc(C)c(OCCC(=O)N2CCN(S(=O)(=O)c3cc(C)ccc3C)CC2)c1
- EC50 [12]: > 120 µM (not active)
- EC50 [13]: 97 µM (active)
- CC50 [1]: 22.3 µM (active)
- EC50 [14]: > 120 µM (not active)

SMILES: OCCCCNc1cccc2ccccc12
- IC50 [15]: 22.8 µM (active)

SMILES: Cc1ccc(S(=O)(=O)NCCc2cc3ccc(C)cc3nc2O)cc1
- AC50 [16]: > 70 µM (inactive)

SMILES: Cc1ccn2c(S)nnc2c1
- IC50 [15]: 19.4 µM (active)

SMILES: O=C(NC(=S)Nc1ccc(Oc2ccc(Cl)cc2)cc1)c1ccccc1
- AC50 [5]: 2.82 µM (inconclusive)
- AC50 ([6]; read-out: AC50): 7.08 µM (inconclusive)
